Measurements taken from patent US5324747A, “N-substituted anilines, inhibitors of phospholipases A2” (Hoffmann-La Roche Inc., priority 1992, dated 1994).
Where a name gives a salt, the structure may show the parent alone.

Each molecule was assayed against T1, HSF-PLA2 (Homo sapiens, UniProt P14555) (assay: Assay for Inhibition of HSF-PLA2 In Vitro). Conditions: (1 μM); read-out: Inhib of HSF-PLA2, % inhibition.
T1 construct: extracellular enzyme obtained from human synovial fluid (HSF-PLA2); from tissue; host or cells: pooled human synovial fluid, added at 0.1% (v/v)
T1 sequence (P14555 21-144): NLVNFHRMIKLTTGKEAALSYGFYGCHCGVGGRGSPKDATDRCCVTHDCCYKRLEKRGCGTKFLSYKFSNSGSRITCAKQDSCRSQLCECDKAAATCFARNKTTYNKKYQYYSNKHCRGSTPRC
Format: biochemical
Description: Assay for Inhibition of HSF-PLA2 In Vitro
The PLA2 used in this test is the extracellular enzyme obtained from human synovial fluid (HSF-PLA2).
The optimal conditions which were developed for the assay of HSF-PLA2 inhibitors are summarized as follows. […] The reaction was initiated by the addition of HSF-PLA2 and duplicate samples of the mixture were incubated in 13×100 mm glass tubes with shaking for 30 minutes at 37° C. […] The extraction of lipids from the stopped reaction mixture was conducted by the further additions of […] of chloroform and 1 ml of water with mixing. After centrifuging, the lower chloroform phase was transferred to smaller glass tubes and the solvent was evaporated to dryness with a nitrogen stream. The extracted lipid residue was redissolved in 50 μl of a solution containing carrier oleic acid (0.2 mg/ml) of chloroform-methanol [9 to 1, v/v]). The whole lipid extract was applied to a preactivated (30 minutes at 110° C.) silica gel-impregnated glass fiber thin layer chromatography sheet (ITLC type SG sheet from Gelman Sciences, Inc., Ann Arbor, Mich.) using hexane-acetic acid (100 to 1, v/v) as the developing solvent. This TLC system rapidly (6 minutes) resolved the enzymatically released product, ^14 C-oleic acid, from the unreacted ^14 C-phospholipid substrate. The unsaturated lipids were located on the chromatogram by a brief exposure to iodine vapor. […] A control incubation of substrate in the absence of HSF-PLA2 was performed in each experiment.

Q: Which inhibition at 1 µM does the source give for `CCCCCCCCCC(=O)Oc1cc(OC(=O)CCCCCCCCC)cc(N(CC(=O)O)CC(=O)O)c1` [Example 6u, N-(carboxymethyl)-N-[3,5-bis[(1-oxodecyl)oxy]phenyl]glycine] here?
A: 64%

Q: Which inhibition at 1 µM does the source give for `CCCCCCCCCCCCCCc1ccc(N(CC(=O)O)CC(=O)O)cc1` [Example 39, N-(carboxymethyl)-N-(4-tetradecylphenyl)glycine] here?
A: 67%

Q: For `CCCCCCCCCCc1ccc(N(CC(=O)O)CC(=O)O)cc1` [Example 39d, N-(carboxymethyl)-N-(4-decylphenyl)glycine], which inhibition at 1 µM is on record?
A: 39%

Same assay, conditions: (5 μM); read-out: Inhib of HSF-PLA2, % inhibition

Q: `CCCCC/C=C\C/C=C\CCCCCCCC(=O)Nc1cccc(N(CC(=O)O)CC(=O)O)c1` [Example 51, N-(carboxymethyl)-N-[3-[(9Z,12Z)-(1-oxo-9,12-octadecadienyl)amino]phenyl]glycine] was tested. Which inhibition at 5 µM did it give?
A: 67%

Q: For `CCCCCCCC/C=C\CCCCCCCC(=O)Nc1cccc(N(CC(=O)O)CC(=O)O)c1` [Example 51], which inhibition at 5 µM is on record?
A: 63%

Same assay, conditions: (10 μM); read-out: Inhib of HSF-PLA2, % inhibition

Q: For `O=C(O)CN(CC(=O)O)c1cc(C(=O)NC23CC4CC(CC(C4)C2)C3)cc(C(=O)NC23CC4CC(CC(C4)C2)C3)c1` [Example 6s], which inhibition at 10 µM is on record?
A: 30%

Q: With `CCCCCCCCCCCCCCCCCCCc1cc(CCCCCCCCCCCCCCCCCCC)cc(N(CC(=O)O)CC(=O)O)c1` [Example 6t, N-(carboxymethyl)-N-(3,5-dinonadecylphenyl)glycine] as the molecule, how does the inhibition at 10 µM read?
A: 39%

Q: Which inhibition at 10 µM does the source give for `CCCCCCCCCCNC(=O)c1cccc(N(CC(=O)O)CC(=O)O)c1` [Example 36d, N-(carboxymethyl)-N-[[(decylamino)carbonyl]phenyl]glycine] here?
A: 46%

Q: For `O=C(O)CN(CC(=O)O)c1cccc(OCCOc2ccc3ccccc3c2)c1` [Example 36g, N-(carboxymethyl)-N-[(3-(2-naphthalenyloxy)ethoxy]phenyl]glycine], which inhibition at 10 µM is on record?
A: 19%

Q: `CCCCCCCCCCCCCCOc1cc(NCC(=O)O)cc(OCCCCCCCCCCCCCC)c1` [Example 127c, N-[3,5-bis(tetradecyloxy)phenyl]glycine] was tested. Which inhibition at 10 µM did it give?
A: 73%

Same assay, conditions: (20 μM); read-out: Inhib of HSF-PLA2, % inhibition

Q: `O=C(O)CCCCOc1cc(OCCCCC(=O)O)cc(N(CC(=O)O)CC(=O)O)c1` [Example 6i, N-(carboxymethyl)-N-[3,5-bis[(5-hydroxy-5-oxopentyl)oxy]phenyl]glycine] was tested. Which inhibition at 20 µM did it give?
A: 6%

Q: How did the inhibition at 20 µM turn out when `O=C(O)CN(CC(=O)O)c1cccc(C(=O)NC23CC4CC(CC(C4)C2)C3)c1` [Example 36h, N-(carboxymethyl)-N-[3-[(tricyclo[3.3.1.1/3,7/]dec-1-ylamino)carbonyl]phenyl]glycine] was run?
A: 25%

Q: For `O=C(O)CN(CC(=O)O)c1ccccc1` [Example 39a, N-(carboxymethyl)-N-phenylglycine], which inhibition at 20 µM is on record?
A: -10%

Same assay, conditions: read-out: Inhib of HSF-PLA2 IC50

Q: With `CCCCCCCCC(O)COc1cc(OCC(O)CCCCCCCC)cc(N(CC(=O)O)CC(=O)O)c1` (racemic) [Example 6h, rac-N-(carboxymethyl)-N-[3,5-bis[[2-hydroxydecyl)oxy]phenyl]glycine] as the molecule, how does the IC50 read?
A: 500 nM

Q: `CCCCCCCCC(O)COc1cc(NCC(=O)O)cc(OCC(O)CCCCCCCC)c1` (stereo not shown) [127 d] was tested. Which IC50 did it give?
A: 3500 nM

Q: How did the IC50 turn out when `CCCCOc1cc(OCCCC)cc(N(CC(=O)O)CC(=O)O)c1` [Example 6a, N-[3,5-bis(butoxy)phenyl]-N-(carboxymethyl)glycine] was run?
A: 2000 nM

Q: Which IC50 does the source give for `CCCCCCOc1cc(OCCCCCC)cc(N(CC(=O)O)CC(=O)O)c1` [Example 6b, N-(carboxymethyl)-N-[3,5-bis(hexyloxy)phenyl]glycine] here?
A: 2100 nM

Q: For `CCCCCCCCCCCCCCCCCCOc1cc(OCCCCCCCCCCCCCCCCCC)cc(N(CC(=O)O)CC(=O)O)c1` [Example 6f, N-(carboxymethyl)-N-[3,5-bis(octadecyloxy)phenyl]glycine], which IC50 is on record?
A: 500 nM

Q: `O=C(O)CN(CC(=O)O)c1cc(OCCCOc2cccc(-c3ccccc3)c2)cc(OCCCOc2cccc(-c3ccccc3)c2)c1` [Example 6m] was tested. Which IC50 did it give?
A: 580 nM

Q: `O=C(O)CN(CC(=O)O)c1cc(OCCCOc2ccc(-c3ccccc3)cc2)cc(OCCCOc2ccc(-c3ccccc3)cc2)c1` [Example 6n] was tested. Which IC50 did it give?
A: 400 nM

Q: How did the IC50 turn out when `O=C(O)CN(CC(=O)O)c1cc(OCCOc2ccc3ccccc3c2)cc(OCCOc2ccc3ccccc3c2)c1` [Example 6o, N-(carboxymethyl)-N-[3,5-bis[2-[2-naphthalenyloxy)]ethoxy]glycine] was run?
A: 600 nM

Q: Which IC50 does the source give for `O=C(O)CN(CC(=O)O)c1cc(OCCOc2cccc3ccccc23)cc(OCCOc2cccc3ccccc23)c1` [Example 6p, N-(carboxymethyl)-N-[3,5-bis[2-[1-naphthalenyloxy)]ethoxy]glycine] here?
A: 2000 nM

Q: How did the IC50 turn out when `CCCCCCCCCCCCCCCCCCNC(=O)c1cc(C(=O)NCCCCCCCCCCCCCCCCCC)cc(N(CC(=O)O)CC(=O)O)c1` [Example 6r, N-(carboxymethyl)-N-[3,5-bis[(octadecylamino)carbonyl]phenyl]glycine] was run?
A: 640 nM

Q: With `CCCCCCCCCC(=O)Nc1cc(NC(=O)CCCCCCCCC)cc(N(CC(=O)O)CC(=O)O)c1` [Example 21] as the molecule, how does the IC50 read?
A: 3800 nM

Q: With `CCCCCCCCCCc1cc(CCCCCCCCCC)cc(N(CC(=O)O)CC(=O)O)c1` [Example 29, N-(Carboxymethyl)-N-(3,5-didecylphenyl) glycine] as the molecule, how does the IC50 read?
A: 1500 nM

Q: `CCCCCCCCCCCCCCCCCCCc1cccc(N(CC(=O)O)CC(=O)O)c1` [Example 36f, N-(carboxymethyl)-N-(3-nonadecylphenyl)glycine] was tested. Which IC50 did it give?
A: 200 nM

Q: `CCCCC/C=C\C/C=C\CCCCCCCCOc1cccc(N(CC(=O)O)CC(=O)O)c1` [Example 49, N-(carboxymethyl)-N-[3-[(9Z,12Z)-(9,12-octadecadienyl]oxy]phenyl]glycine] was tested. Which IC50 did it give?
A: 200 nM

Q: For `CCCCCCCC/C=C\CCCCCCCCOc1cccc(N(CC(=O)O)CC(=O)O)c1` [Example 49], which IC50 is on record?
A: 300 nM

Q: For `CCCCCCCCCCCCCCCCCCOc1cc(OCCCCCCCCCCC(=O)OC)cc(N(CC(=O)O)CC(=O)O)c1` [Example 58d, N-(carboxymethyl)-N-[3-(11-methoxy-11-oxoundecyloxy)-5-(octadecyloxy)phenyl]glycine], which IC50 is on record?
A: 80 nM

Q: With `CCCCCCCCCCCCCCCCCCOc1cc(OCCCCCCCCCCC(=O)O)cc(N(CC(=O)O)CC(=O)O)c1` [Example 58e] as the molecule, how does the IC50 read?
A: 200 nM

Q: For `CCCCCCCCCCCCCCCCCCOc1cc(OC(=O)C23CC4CC(CC(C4)C2)C3)cc(N(CC(=O)O)CC(=O)O)c1` [Example 58f, N-(Carboxymethyl)-N-[[3-(octadecyloxy)-5-(tricyclo[3.3.1.1/3,7]dec-1-ylcarbonyl)oxy]phenyl]glycine], which IC50 is on record?
A: 300 nM

Q: Which IC50 does the source give for `CCCCCCCCCCCCCCCCCCOc1cc(OC(=O)C(c2ccccc2)c2ccccc2)cc(N(CC(=O)O)CC(=O)O)c1` [Example 58g] here?
A: 100 nM

Q: Which IC50 does the source give for `CCCCCCCCCCCCCCCCCCOc1cc(OCCCOc2cccnc2)cc(N(CC(=O)O)CC(=O)O)c1` [Example 58i] here?
A: 300 nM

Q: For `CCCCCCCCCCCCCCCCCCOc1cc(OC(C)=O)cc(N(CC(=O)O)CC(=O)O)c1` [Example 80], which IC50 is on record?
A: 220 nM

Q: With `CCCCCCCCCCOc1ccc(N(CC(=O)O)CC(=O)O)cc1OCCCCCCCCCC` [Example 119a, N-(carboxymethyl)-N-[3,4-bis(decyloxy)phenyl]glycine] as the molecule, how does the IC50 read?
A: 160 nM

Q: `CCCCCCCCCCCCCCCCCCOc1cc(NCC(=O)O)cc(OC(=O)C23CC4CC(CC(C4)C2)C3)c1` [Example 175, N-[[3-(Octadecyloxy)-5-(tricyclo[3.3.1.1/3.7/]dec-1-ylcarbonyl)oxy]phenyl]glycine] was tested. Which IC50 did it give?
A: 300 nM

The molecules below were run on PLA2 Rat Paw Edema (assay: Phospholipase A2 Rat Paw Edema). Conditions: Rattus norvegicus; 2 hr; 30 mg/kg; read-out: % Inhib of PLA2 Rat Paw Edema 2 hr (30 mg/kg).
Format: in vivo, Lewis rats
Description: Phospholipase A2 Rat Paw Edema
Representation compounds of the invention were tested in rats to determine their ability to inhibit the acute inflammatory response induced by the injection of snake venom phospholipase A2. Test compounds are administered intraperitoneally or orally to groups of seven Lewis rats (≈200 gm) 1 hr prior to phospholipase A2 administration. The test compounds are dissolved in dimethyl sulfoxide for intraperitoneal administration and dissolved or suspended in Labrafil M-1944CS for oral administration. At 0 hr, 5 ug (10 units) of purified phospholipase A2 from Naja naja venom (Sigma Chem. Co.) dissolved in 0.1 mL of pyrogen free saline is injected subplantarly into the right hind paw to elicit the inflammatory response. The volume (in mL) of the right hind paw is measured by immersion of the paw to the level of the lateral malleolus in an aqueous plethysmometer immediately prior to the injection of phospholipase A2 and then at 0.5, 2 and 4 hr after phospholipase A2 injection. The paw edema is calculated by subtracting the zero time reading from the readings taken after injection. The percent change of the edema volume from the vehicle treated control is calculated to determine the activity of the test compound. Statistical analysis of the mean paw edema values of the control versus the treated groups is performed using Student's t-test. Significance of changes from mean value for vehicle-treated animals (*p<0.05, **p<0.01, ***p<0.001, ns/not significant).

Q: Which inhibition in vivo at 30 mg/kg does the source give for `CCCCCCCCC(O)COc1cc(OCC(O)CCCCCCCC)cc(N(CC(=O)O)CC(=O)O)c1` (racemic) [Example 6h, rac-N-(carboxymethyl)-N-[3,5-bis[[2-hydroxydecyl)oxy]phenyl]glycine] here?
A: 5%

Q: How did the inhibition in vivo at 30 mg/kg turn out when `CCCCOc1cc(OCCCC)cc(N(CC(=O)O)CC(=O)O)c1` [Example 6a, N-[3,5-bis(butoxy)phenyl]-N-(carboxymethyl)glycine] was run?
A: 33%

Q: With `CCCCCCOc1cc(OCCCCCC)cc(N(CC(=O)O)CC(=O)O)c1` [Example 6b, N-(carboxymethyl)-N-[3,5-bis(hexyloxy)phenyl]glycine] as the molecule, how does the inhibition in vivo at 30 mg/kg read?
A: 25%

Q: How did the inhibition in vivo at 30 mg/kg turn out when `CCCCCCCCCCOc1cc(OCCCCCCCCCC)cc(N(CC(=O)OCCN(CC)CC)CC(=O)OCCN(CC)CC)c1` [Example 130, N-[3,5-bis(Decyloxy)phenyl]-N-[2-[2-(diethylamino)ethoxy]-2-oxoethyl]glycine 2-(diethylamino)ethyl ester dihydrochloride] was run?
A: 2%
